We go through 60 compounds from the METLIN SMRT retention time set (Domingo-Almenara et al. 2019).

This series is described as follows: gradient 5% acetonitrile 3 min, to 50% in 2 min, to 85% in 15 min, held 3 min, 100 µL/min. As to conditions: column: Zorbax Extend-C18 2.1 x 50 mm; eluents: water / acetonitrile, 0.1% formic acid. In short, it runs like this: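 Pure standards were run in mixtures of ~100 molecules by HPLC coupled to a quadrupole time-of-flight mass spectrometer. The column was a Zorbax Extend-C18 (2.1 × 50 mm, 1.8 μm) at 100 μL/min, with water and acetonitrile each containing 0.1% formic acid, in positive and negative ionization mode. Dead and dwell volumes were 40 μL and 900 μL. Retention time was taken from computationally picked adduct peaks, each manually inspected, with data collected over 3 months.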
Take `Cn1cc(S(=O)(=O)N2CCC(C(=O)NCc3cccs3)CC2)cc1C(=O)N1CCCC1`: the RP-LC retention time amounted to 706 s.

The compound `CCCN1C(=O)COc2ccc(-c3noc(CNS(=O)(=O)c4ccccc4)n3)cc21` returned an RP-LC retention time of 888 s.

On to `O=C(c1ccncc1)N1CCCCC1c1nc(-c2ccc(F)cc2)no1` (stereo not given), for which the RP-LC retention time worked out at 673 s.

For the compound `COc1cccc(-c2noc(CN3C(=O)COc4ccc(Cl)cc43)n2)c1`, the RP-LC retention time worked out at 1070 s.

`CCOC(=O)c1c(C)[nH]c(C(=O)N2CCC(CC(=O)NCc3cccnc3)CC2)c1C`: the RP-LC retention time stood at 608 s.

In turn, `COc1ccc(NC(=O)C2CCN(S(C)(=O)=O)c3cc(C)ccc3O2)cc1Cl` (stereo not given) returned an RP-LC retention time of 957 s.

For the compound `Cc1oc(C2CCC2)nc1C(=O)NCc1ccc2c(c1)OCO2`, the RP-LC retention time came to 978 s.

`CCCn1ccc2sc(C)c(C(=O)NCc3ccccc3Cl)c2c1=O` came in with an RP-LC retention time of 980 s.

The compound `COc1ccc(NC(=O)Nc2nccn(-c3ccc(Cl)cc3)c2=O)cc1OC` returned an RP-LC retention time of 854 s.

The compound `Cc1cnc(C2CN(Cc3cccc(C#N)c3)C2)n1Cc1ccccc1` registered an RP-LC retention time of 582 s.

In turn, `N#Cc1ccc(C(=O)NCc2[nH]nc3ccccc23)cc1` had an RP-LC retention time of 699 s.

As for `O=C(CCCc1ccccc1)N1CCN(c2ccc(Nc3cccnc3)nn2)CC1`, the RP-LC retention time is 575 s.

Consider `CCc1ccc(-c2ccc(=O)n(CCc3nc(-c4ccc(C)cc4)no3)n2)cc1`, for which the RP-LC retention time was 1180 s.

`CCN1C(=O)COc2ccc(-c3nc(NC(=O)c4ccco4)sc3C)cc21` yielded an RP-LC retention time of 883 s.

On to `Cc1csc(-c2ccc(N3CCN(C(=O)c4ccc(F)c(F)c4)CC3)nc2)n1`, for which the RP-LC retention time was 846 s.

`O=C(Nc1ccc2c(N3CCCCC3)ncnc2c1)c1cncc(Br)c1` displayed an RP-LC retention time of 664 s.

Consider `Cc1cnc(C(=O)NC2C[C@H]3CC[C@@H](C2)N3C(=O)CCC2CCCCC2)cn1` (stereo not given in full), for which the RP-LC retention time was determined as 821 s.

In turn, `Cc1ccccc1S(=O)(=O)N1CCC2(CC1)CC(OCC1CC1)CCO2` (stereo not given) had an RP-LC retention time of 1080 s.

Regarding `COC(=O)c1ccccc1S(=O)(=O)Nc1ccc2c(c1)CCC(=O)N2`, the RP-LC retention time came to 697 s.

For `Cc1ccsc1C(=O)Nc1ccccc1SCc1nnc(-c2ccccc2)o1`, the RP-LC retention time turned out to be 1080 s.

Compound `CCCc1nc(NC(C)c2ccc(OC)c(OC)c2)ncc1C(=O)O` (stereo not given) had an RP-LC retention time of 750 s.

For the compound `O=C(NCc1nnnn1C1CCCCC1)c1ccc(Br)o1`, the RP-LC retention time came to 738 s.

`CCCC(NC(=O)c1ccc(OC)cc1)C(=O)Nc1nc2ccccc2[nH]1` (stereo not given) gave an RP-LC retention time of 658 s.

As to `c1cc(-c2nc(-c3ccc4c(c3)ncn4CCN3CCCCC3)no2)ccn1`, the RP-LC retention time amounted to 581 s.

On to `CC(C)n1nc(CNC(=O)C2CCC2)c2ccccc21`, for which the RP-LC retention time came to 812 s.

As for `Cc1onc(C(=O)N2CCc3c(c(-c4nncn4CC4CC4)nn3C)C2)c1Cn1cc(Cl)cn1`, the RP-LC retention time amounted to 735 s.

With `CS(=O)(=O)N1CCCc2cc(C(=O)NCc3ccco3)ccc21`, the RP-LC retention time is 742 s.

In turn, `CCOC(=O)c1c(-c2ccc(OC)c(OC)c2)csc1NC(=O)CN1CCCC1` had an RP-LC retention time of 566 s.

With `Cc1cccc(-n2ncc3c(NCCCN4CCCC4=O)ncnc32)c1`, the RP-LC retention time was 682 s.

Compound `COc1ccc(Cn2nc3ccc(S(=O)(=O)N4CCCC4)cn3c2=O)cc1` yielded an RP-LC retention time of 827 s.

Compound `Cn1c(=O)c2c(nc(N3CCCCC3)n2C)n(C)c1=O` yielded an RP-LC retention time of 794 s.

`CCOc1ccccc1-c1noc(Cn2c(=O)n(C(C)CC)c(=O)c3ccccc32)n1` (stereo not given) came in with an RP-LC retention time of 1140 s.

`COCc1cc(=O)n(CC(=O)Nc2ccc(F)cc2)c(N2CCOCC2)n1` returned an RP-LC retention time of 797 s.

`CCn1ncc(NC(=O)COc2ccc(F)cc2)c(N2CCCCC2)c1=O` had an RP-LC retention time of 793 s.

Compound `CC(C)(C)c1ccc(S(=O)(=O)c2nnn(-c3ccc4c(c3)OCCO4)c2N)cc1` showed an RP-LC retention time of 944 s.

For `Cc1ccc(-c2nnc(-c3cccc(S(=O)(=O)NC(C)(C)C)c3)o2)cc1`, the RP-LC retention time was 1030 s.

As to `O=C(NCCc1cccs1)C1CCN(c2cc(N3CCOCC3)ncn2)CC1`, the RP-LC retention time stood at 607 s.

`O=C(Cn1cnc(-c2cccs2)cc1=O)NCc1nc2ccccc2[nH]1` displayed an RP-LC retention time of 570 s.

The compound `COc1cc(=O)n2c(c1C(=O)Nc1ccc(Br)cc1F)CCCC2` displayed an RP-LC retention time of 777 s.

`Cc1noc(/C=C/c2ccc(S(=O)(=O)N3CCCCC3)s2)c1NC(=O)C1CC1` displayed an RP-LC retention time of 901 s.

As for `CCc1ccc(-c2ccc(-n3nc(C)c(S(=O)(=O)N4CCCC4)c3C)nn2)cc1`, the RP-LC retention time turned out to be 1170 s.

`Cc1cccc(NC(=O)Cn2ccc3sccc3c2=O)c1` registered an RP-LC retention time of 701 s.

Take `O=C(Cn1cccc1-c1nc(-c2ccc(Cl)cc2)cs1)NCCN1CCOCC1`: the RP-LC retention time was determined as 711 s.

The compound `CCOc1ccc(CC(=O)N2CCCC2c2nc(-c3ccccc3Cl)no2)cc1OCC` (stereo not given) came in with an RP-LC retention time of 1050 s.

Take `CCCNC(=O)C1CCN(c2ccc(SCC(=O)NCc3ccc(F)cc3)nn2)CC1`: the RP-LC retention time was 667 s.

In turn, `CN(C)CC1CN(C(=O)COc2ccccc2)CC12CCOCC2` (stereo not given) showed an RP-LC retention time of 599 s.

In turn, `COc1cccc(N2CCN(S(=O)(=O)c3cc(-c4nc(C(C)C)cs4)cs3)CC2)c1` yielded an RP-LC retention time of 1310 s.

Compound `COCCNC(=O)N1CCCN(C2=NS(=O)(=O)C(c3ccc(C)c(C)c3)=C2C)CC1` showed an RP-LC retention time of 738 s.

In the case of `O=C(CC1CCOCC1)N1CCN(C(=O)c2ccco2)CC1`, the RP-LC retention time is 612 s.

On to `Cc1ccn2c(NC(=O)c3ccc([N+](=O)[O-])cc3)c(-c3ccccc3)nc2c1`, for which the RP-LC retention time is 667 s.

`Cc1nc2cccnc2n1CC1CCCN(S(=O)(=O)c2ccc3c(c2)CCCC3)C1` (stereo not given) returned an RP-LC retention time of 831 s.

Take `Cc1cc(=O)n(CC(=O)N2CCN(c3ccc(F)cc3)CC2)c(N2CCOCC2)n1`: the RP-LC retention time came out at 674 s.

Consider `Cc1ccc(NC(=O)c2c(O)c3cccnc3n(-c3ccc(F)cc3)c2=O)c(C)c1`, for which the RP-LC retention time is 1320 s.

Regarding `Cc1nc2c(NS(=O)(=O)c3ccc(F)c(C)c3)cccn2n1`, the RP-LC retention time is 784 s.

On to `CCn1cc(S(=O)(=O)N2CCC(C3CCN(C(=O)NC)CC3)C2)cn1` (stereo not given), for which the RP-LC retention time amounted to 622 s.

For `CSc1ccccc1CN1CCC(CNC(=O)C(=O)Nc2ccc3c(c2)OCO3)CC1`, the RP-LC retention time was determined as 586 s.

With `Cc1ccc(-c2nc3ccccn3c2Nc2ccccc2C)cc1`, the RP-LC retention time came out at 731 s.

`CCn1cc(C)c(C(=O)O)c1CC(=O)NCCN1CCOCC1` came in with an RP-LC retention time of 582 s.

With `O=C(Nc1cccc(F)c1)N1CCCC(Cn2c(C3CC3)nc3cccnc32)C1` (stereo not given), the RP-LC retention time was found to be 676 s.

Turning to `COc1ccc(C2(C(=O)N3CCC(Oc4ccccc4-c4nc(C)no4)C3)CC2)cc1` (stereo not given), the RP-LC retention time was 880 s.
